Assays:
Type in all cases: physicochemical
[1] = Example 23 back extraction with aqueous glycolic acid from loaded solvent (70% trialkylamine/30% toluene), 140° C.; conditions: 70% C8-C10 trialkylamine/30% toluene, 40 psig nitrogen
Experimental: (§1) A variety of analytical methods can be employed to analyze the reactants and products produced using the present methods include HPLC, GC, ion selective electrodes, MS, NMR, etc. HPLC was used to measure glycolic acid and various related products. Briefly, samples are diluted with water (as needed to be within HPLC detection range) and mixed 1:1 with 0.2 M n-propanol in water (HPLC internal standard). HPLC Analytical Method: (BioRad HPX 87H ion exclusion column (BioRad, Hercules, Calif.), 300 mm×7.8 mm; 0.01 N H2SO4 mobile phase; 1.0 mL/min flow at 50° C.; 10 μL injection volume; RI detector and UV 210 nm, 20 min analysis time). HPLC Equipment: (Waters 2695 ‘Alliance’ Separations Module, 2410 Refractive Index Detector, 2487 Dual λ Absorbance Detector and Empower Pro Software (Waters Corp, Milford, Mass.).
(§2) Back Extraction from a Loaded Solvent of Approximately 70% C8-C10 Trialkylamine in Combination with 30% Toluene
(§3) The vessel was then closed, and the headspace purged with nitrogen. The resulting mixture was stirred for 60 minutes at 140° C. under 40 psig (˜275.8 kPa) nitrogen. The stirring was stopped and the two phases allowed to separate at 140° C., then the organic phase was sampled under pressure through the top dip tube into a Hoke cylinder, and aqueous phases was sampled under pressure through the bottom dip tube into another Hoke cylinder.

[2] = Example 21 back extraction with aqueous glycolic acid from loaded solvent (70% trialkylamine/30% toluene), 120° C.; conditions: 70% C8-C10 trialkylamine/30% toluene, 40 psig nitrogen
Experimental: as §1, §2
as §3, with “120°” for “140°”

[3] = Example 1 reactive solvent extraction, 70% Alamine 336/10% MIBK/20% kerosene, 25° C.; conditions: pH 2 to 3
Text: A water-immiscible organic solvent (i.e., “first phase”) is subsequently mixed with the second phase, and forms a two-phase system (a water immiscible organic phase and an aqueous phase). The glycolic acid in the second phase forms a complex with the tertiary trialkyl amine in the first phase.
as §1
Solvent Extraction Using Approximately 70% C8-C10 Trialkylamine in Combination with 10% Methyl Isobutyl Ketone and 20% Kerosene at 25° C.
Into a 4-mL glass reactor equipped with magnetic stir bar was placed 1 mL of a mixed solvent containing 70% (volume/volume) of trialkyl amine (Alamine® 336; Cognis Corp., Cincinnati, Ohio), 10% (volume/volume) methyl isobutyl ketone (MIBK) and 20% (volume/volume) kerosene. The pH of an aqueous solution of ammonium glycolate (5 wt % to 40 wt %) was adjusted to about pH 2 to 3 with concentrated sulfuric acid (H2SO4), then 1 mL of the resulting aqueous solution was added to the reactor. The resulting mixture was stirred for 30 minutes at 25° C.

[4] = Example 9 reactive solvent extraction, 90% Alamine 336/10% 1-octanol, 75° C.; conditions: pH 2 to 3
Experimental: as §1
Solvent Extraction Using Approximately 90% C8-C10 Trialkylamine in Combination with 10% 1-Octanol at 75° C.
(§4) Into a 4-mL glass reactor equipped with magnetic stir bar was placed 1 mL of a mixed solvent containing 90% (volume/volume) Alamine® 336 (Cognis), 10% (volume/volume) 1-octanol. The pH of an aqueous solution of ammonium glycolate (5 wt % to 40 wt %) was adjusted to pH 2 to 3 with concentrated sulfuric acid, then 1 mL of the resulting aqueous solution was added to the reactor. The resulting mixture was stirred for 30 minutes at 75° C.

[5] = Example 15 reactive solvent extraction, 90% Alamine 336/10% xylenes, 75° C.; conditions: pH 2 to 3
Experimental: as §1
Solvent Extraction Using Approximately 90% C8-C10 Trialkylamine in Combination with 10% Xylenes at 75° C.
as §4, with “xylenes (mixed xylene isomers).” for “1-octanol.”

[6] = Example 12 reactive solvent extraction, 90% Alamine 336/10% toluene, 25° C.; conditions: pH 2 to 3
Experimental: as §1
Solvent Extraction Using Approximately 90% C8-C10 Trialkylamine in Combination with 10% Toluene at 25° C.
as §4, with “toluene.” for “1-octanol.”, “25°” for “75°”

[7] = Example 5 reactive solvent extraction, 90% Alamine 336/10% MIBK, 75° C.; conditions: pH 2 to 3
Experimental: as §1
Solvent Extraction Using Approximately 90% C8-C10 Trialkylamine in Combination with 10% Methyl Isobutyl Ketone at 75° C.
as §4, with “(Cognis) and” for “(Cognis),”, “methyl isobutyl ketone (MIBK).” for “1-octanol.”

[8] = initial 20.0 wt % glycolic acid in aqueous phase, 14.2 wt % in loaded solvent
[9] = initial 40.0 wt % glycolic acid in aqueous phase, 15.7 wt % in loaded solvent
[10] = initial 3.6 wt % glycolic acid in aqueous phase
[11] = initial 8.5 wt % glycolic acid in aqueous phase
[12] = initial 12.1 wt % glycolic acid in aqueous phase
[13] = initial 16.1 wt % glycolic acid in aqueous phase
[14] = initial 20.6 wt % glycolic acid in aqueous phase
[15] = initial 25.1 wt % glycolic acid in aqueous phase
[16] = initial 29.1 wt % glycolic acid in aqueous phase
[17] = initial 32.8 wt % glycolic acid in aqueous phase

Which “Partition coefficient (wt % org./wt % aq.)” value [1, 8] does the source give for `O=C(O)CO` [glycolic acid] here?
Its value is 0.44.

And the “Partition coefficient (wt % org./wt % aq.)” value [1, 9]?
Its value is 0.45.

What about the “Partition coefficient (wt % org./wt % aq.)” value [2, 8] of the same compound?
Its value is 0.54.

What about the “Partition coefficient (wt % org./wt % aq.)” value [2, 9] of the same compound?
The value was 0.54.

And the “Partition coefficient of glycolic acid (organic wt %/aqueous wt %)” value [3, 10]?
Its value is 1.1.

And the “Partition coefficient of glycolic acid (organic wt %/aqueous wt %)” value [3, 11]?
The value was 1.1.

And the “Partition coefficient of glycolic acid (organic wt %/aqueous wt %)” value [3, 12]?
The value was 1.0.

And the “Partition coefficient of glycolic acid (organic wt %/aqueous wt %)” value [3, 13]?
The value was 0.94.

And the “Partition coefficient of glycolic acid (organic wt %/aqueous wt %)” value [3, 14]?
The value was 0.90.

What about the “Partition coefficient of glycolic acid (organic wt %/aqueous wt %)” value [3, 15] of the same compound?
Its value is 0.85.

What about the “Partition coefficient of glycolic acid (organic wt %/aqueous wt %)” value [3, 16] of the same compound?
The value was 0.73.

And the “Partition coefficient of glycolic acid (organic wt %/aqueous wt %)” value [3, 17]?
The value was 0.67.

What about the “Partition coefficient (wt % org./wt % aq.)” value [4, 10] of the same compound?
The value was 0.54.

What about the “Partition coefficient (wt % org./wt % aq.)” value [4, 11] of the same compound?
Its value is 0.56.

And the “Partition coefficient (wt % org./wt % aq.)” value [4, 12]?
The value was 0.62.

And the “Partition coefficient (wt % org./wt % aq.)” value [4, 13]?
The value was 0.63.

And the “Partition coefficient (wt % org./wt % aq.)” value [4, 14]?
Its value is 0.73.

And the “Partition coefficient (wt % org./wt % aq.)” value [4, 15]?
The value was 0.75.

What about the “Partition coefficient (wt % org./wt % aq.)” value [4, 16] of the same compound?
Its value is 0.73.

And the “Partition coefficient (wt % org./wt % aq.)” value [4, 17]?
Its value is 0.70.

What about the “Partition coefficient (wt % org./wt % aq.)” value [5, 10] of the same compound?
Its value is 0.55.

What about the “Partition coefficient (wt % org./wt % aq.)” value [5, 11] of the same compound?
Its value is 0.55.

And the “Partition coefficient (wt % org./wt % aq.)” value [5, 12]?
Its value is 0.66.

And the “Partition coefficient (wt % org./wt % aq.)” value [5, 13]?
Its value is 0.64.

What about the “Partition coefficient (wt % org./wt % aq.)” value [5, 14] of the same compound?
The value was 0.65.

What about the “Partition coefficient (wt % org./wt % aq.)” value [5, 15] of the same compound?
Its value is 0.73.

And the “Partition coefficient (wt % org./wt % aq.)” value [5, 16]?
Its value is 0.75.

And the “Partition coefficient (wt % org./wt % aq.)” value [5, 17]?
The value was 0.72.

And the “Partition coefficient (wt % org./wt % aq.)” value [6, 10]?
The value was 1.22.

And the “Partition coefficient (wt % org./wt % aq.)” value [6, 11]?
Its value is 1.41.

What about the “Partition coefficient (wt % org./wt % aq.)” value [6, 12] of the same compound?
Its value is 1.46.

And the “Partition coefficient (wt % org./wt % aq.)” value [6, 13]?
The value was 1.23.

And the “Partition coefficient (wt % org./wt % aq.)” value [6, 14]?
The value was 1.20.

What about the “Partition coefficient (wt % org./wt % aq.)” value [6, 15] of the same compound?
Its value is 1.26.

What about the “Partition coefficient (wt % org./wt % aq.)” value [6, 16] of the same compound?
Its value is 1.00.

What about the “Partition coefficient (wt % org./wt % aq.)” value [6, 17] of the same compound?
Its value is 0.86.

And the “Partition coefficient (wt % org./wt % aq.)” value [7, 10]?
The value was 0.75.

What about the “Partition coefficient (wt % org./wt % aq.)” value [7, 11] of the same compound?
The value was 0.70.

And the “Partition coefficient (wt % org./wt % aq.)” value [7, 12]?
The value was 0.76.

What about the “Partition coefficient (wt % org./wt % aq.)” value [7, 13] of the same compound?
Its value is 0.73.

And the “Partition coefficient (wt % org./wt % aq.)” value [7, 14]?
The value was 0.79.

What about the “Partition coefficient (wt % org./wt % aq.)” value [7, 15] of the same compound?
The value was 0.87.

What about the “Partition coefficient (wt % org./wt % aq.)” value [7, 16] of the same compound?
Its value is 0.84.

And the “Partition coefficient (wt % org./wt % aq.)” value [7, 17]?
Its value is 0.86.

— patent US20060160197A1 (priority 2004, published 2006)
